Numbering of substitutions follows the chain as printed.
Assays:
GCase = target: T1, GCase (Homo sapiens, UniProt P04062); experiment: GCase activity in conditioned media of COS-7 cells transfected with human GBA1 plasmid, 72 h; assay type: cell-based; settings: 72 hours expression
T1 construct: expressed in transfected cells; host or cells: COS-7
T1 sequence (P04062 40-536): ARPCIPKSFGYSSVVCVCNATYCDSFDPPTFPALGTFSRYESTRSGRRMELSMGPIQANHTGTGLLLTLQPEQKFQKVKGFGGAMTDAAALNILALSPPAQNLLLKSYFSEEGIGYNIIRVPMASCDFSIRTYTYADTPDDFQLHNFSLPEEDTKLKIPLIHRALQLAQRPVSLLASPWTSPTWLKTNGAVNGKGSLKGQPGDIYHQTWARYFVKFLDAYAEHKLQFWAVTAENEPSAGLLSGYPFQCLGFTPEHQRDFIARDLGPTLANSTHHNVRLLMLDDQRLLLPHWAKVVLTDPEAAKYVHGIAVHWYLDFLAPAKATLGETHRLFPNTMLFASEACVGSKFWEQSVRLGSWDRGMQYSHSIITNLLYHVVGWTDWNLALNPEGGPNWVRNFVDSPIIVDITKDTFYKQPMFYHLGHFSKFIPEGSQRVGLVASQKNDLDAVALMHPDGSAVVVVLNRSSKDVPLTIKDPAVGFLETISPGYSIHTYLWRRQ

α-Gal A [1] = target: T2, α-Gal A (Homo sapiens, UniProt P06280); experiment: α-Gal A activity in conditioned media of COS-7 cells transfected with GLA plasmid, 72 h; assay type: cell-based; settings: 72 hours expression
T2 construct: expressed in transfected cells; host or cells: COS-7
T2 sequence (P06280 32-429): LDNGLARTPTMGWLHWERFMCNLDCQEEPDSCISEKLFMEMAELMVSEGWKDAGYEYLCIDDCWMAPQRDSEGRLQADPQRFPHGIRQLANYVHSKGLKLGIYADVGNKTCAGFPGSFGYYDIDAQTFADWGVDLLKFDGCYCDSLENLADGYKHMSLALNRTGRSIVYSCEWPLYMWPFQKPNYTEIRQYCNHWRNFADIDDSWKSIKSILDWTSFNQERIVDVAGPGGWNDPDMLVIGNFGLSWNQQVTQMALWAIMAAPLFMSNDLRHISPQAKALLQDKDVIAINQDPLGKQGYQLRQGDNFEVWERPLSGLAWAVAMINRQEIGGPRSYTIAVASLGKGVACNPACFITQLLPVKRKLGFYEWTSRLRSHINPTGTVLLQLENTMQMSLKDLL
Description: COS-7 cells were transiently transfected with empty vector or a plasmid coding for the α-Gal A gene (GLA). […] After 72-hours of protein expression, the conditioned media from each transfection was harvested, and the level of α-Gal A activity was assessed using the substrate […].

α-Gal A (Fabrazyme®) = target: T3, α-Gal A (Fabrazyme®) (Homo sapiens, UniProt P06280); experiment: SYPRO Orange thermal stability assay (heat denaturation) of α-Gal A; assay type: binding; settings: 10 and 100 μM DGJ, pH 7.4
T3 construct: purchased
T3 sequence (P06280 32-429): T2 sequence (P06280 32-429)

α-Gal A [2] = target: T2, α-Gal A; experiment: SYPRO Orange α-Gal A denaturation over time at 37° C.; assay type: binding; settings: 50 μM DGJ added at 3 or 6 hours, pH 7.4, 37° C.
α-Gal A [3] = target: T2, α-Gal A; experiment: α-Gal A activity in conditioned media of transiently transfected COS-7 cells, 48 h, concanavalin A capture; assay type: cell-based; settings: 100 μM chaperone, 48 hours expression
[4] = target: T4, recombinant human GAA (Myozyme®) (Homo sapiens, UniProt P10253); experiment: SYPRO Orange GAA unfolding over time at 37° C.; assay type: binding; settings: 50 μM DNJ added at 3 or 6 hours, pH 7.4, 37° C.
T4 construct: purchased Genzyme Corp

α-Glucosidase (GAA) = target: T5, α-Glucosidase (GAA) (Homo sapiens, UniProt P10253); experiment: GAA activity in conditioned media of COS-7 cells transfected with human GAA plasmid, 72 h; assay type: cell-based; settings: 72 hours expression
T5 construct: expressed in transfected cells; host or cells: COS-7

[5] = target: T4, recombinant human GAA (Myozyme®); experiment: Residual GAA enzyme activity (4-MU-α-glucose) on extended incubation at 37° C.; assay type: biochemical; settings: 50 μM 1-DNJ, pH 7.4, 37° C., over 24 hours
Description: FIG. 2A depicts the effects of 1-DNJ-HCl on recombinant human GAA (rhGAA; Myozyme®, Genzyme Corp.) activity at neutral pH (7.4) or lysosomal pH (5.2) at 37° C. GAA activity was evaluated to assess the ability of an ASSC to prolong the activity of rhGAA over time. Myozyme (45 nM) was incubated in pH 7.4 or pH 5.2 buffer with or without 50 μM 1-DNJ at 37° C. over 24 hours. Samples were assayed for GAA enzyme activity using 4-MU-α-glucose at 0, 3, 6 and 24 hours and the residual GAA activity was expressed as % of initial activity.
Residual GAA activity was determined for four formulations:
Activity was measured, based on the % of initial activity (t=0) over 24 hours. Samples were assayed for GAA enzyme activity based on the hydrolysis of the fluorogenic substrate 4-MU-α-glucose at 0, 3, 6 and 24 hours. The GAA activity was expressed as % of initial activity, i.e. residual activity.

[6] = target: T4, recombinant human GAA (Myozyme®); experiment: SYPRO Orange thermal stability assay (heat denaturation) of GAA; assay type: binding
Excerpt: The thermal stability assay utilizes heat to induce protein denaturation, which is monitored using a SYPRO Orange dye that fluoresces upon binding to hydrophobic amino acids (which are not exposed in a folded protein).
FIG. 3 depicts the results of a thermal stability assay that utilizes heat to induce protein denaturation, which is monitored using a SYPRO Orange dye that fluoresces upon binding to hydrophobic amino acids (which are not exposed in a folded protein). […] The experiment was conducted at pH 7.4.
Denaturation is monitored using a SYPRO Orange dye that fluoresces upon binding to hydrophobic amino acids (which are not exposed in a folded protein).
The thermal stability was performed at pH 7.4 for two formulations, which corresponds to the pH of the ER.
A thermal stability experiment as generally described in Example 1 was performed on four compositions: […]

acid β-glucosidase = target: T6, acid β-glucosidase (Homo sapiens, UniProt P04062); settings: 100 μM chaperone, 48 hours expression, COS-7
T6 sequence (P04062 40-536): T1 sequence (P04062 40-536)

[7] = target: T7, acid β-glucosidase (GCase; Cerezyme®) (Homo sapiens, UniProt P04062, R534H); experiment: SYPRO Orange GCase unfolding over time at 37° C.; assay type: binding
T7 construct: purchased Genzyme Corp
T7 sequence (P04062 40-536 R534H): T1 sequence (P04062 40-536) with R495H
Description: FIG. 5 depicts a SYPRO Orange thermal stability experiment to monitor the unfolding of acid β-glucosidase (GCase; Cerezyme®). GCase (2 μM) was incubated in pH 7.4 or pH 5.2 buffer with or without 10 μM IFG at 37° C. and protein unfolding was monitored every hour over 24 hours.
FIG. 9 depicts a SYPRO Orange thermal stability experiment to monitor the unfolding of acid β-glucosidase (GCase; Cerezyme®). GCase was incubated in pH 7.4 or pH 5.2 buffer with or without 10 μM or 100 μM IFG at 37° C., and protein unfolding was monitored every hour over 24 hours.
FIG. 15 depicts that addition of 50 μM IFG at 3 or 6 hours after incubation of GCase (Cerezyme®) in neutral (pH 7.4) buffer at 37° C. prevents further denaturation of the enzyme as measured by SYPRO dye fluorescence.
In this thermal stability experiment, the concentration of IFG was 10 μM in formulation (3).
In this thermal stability experiment, the concentration of IFG was 0, 10 μM, or 100 μM as described above.
The stability of α-Gal A, α-Glucosidase (GAA), and GCase (Cerezyme®) at 37° C. in neutral (pH 7.4) buffer was measured using the SYPRO Orange for 3, 6 or 24 hours.

GCase (Cerezyme®) [8] = target: T8, GCase (Cerezyme®) (Homo sapiens, UniProt P04062, R534H); experiment: GCase activity over time in neutral or acidic buffer at 37° C. (4-MUG); assay type: biochemical; settings: 1 μM IFG, 10 nM GCase, pH 7.4, 37° C.
T8 construct: purchased Genzyme Corp
T8 sequence (P04062 40-536 R534H): T1 sequence (P04062 40-536) with R495H

[9] = target: T7, acid β-glucosidase (GCase; Cerezyme®); experiment: SYPRO Orange thermal stability assay (heat denaturation) of GCase; assay type: binding
Description: FIG. 4 depicts the results of a thermal stability assay that utilizes heat to induce protein denaturation, which is monitored using a SYPRO Orange dye that fluoresces upon binding to hydrophobic amino acids (which are not exposed in a folded protein). Isofagomine increases acid β-glucosidase thermostability as evident by increases in melting temperature in a dose-dependent manner. The experiment was conducted at pH 7.4.
FIG. 8 depicts the stability of recombinant human GCase (Cerazyme®, Genzyme Corp.) at neutral pH (7.4) or acidic pH (5.2) in the presence or absence of 10 μM of IFG as determined in a thermal stability assay. The thermal stability assay utilizes heat to induce protein denaturation, which is monitored using a SYPRO Orange dye that fluoresces upon binding to hydrophobic amino acids (which are not exposed in a folded protein).
A thermal stability experiment as generally described in Example 1 was performed on three compositions of GCase (Cerezyme®):
A thermal stability experiment as generally described in Examples 1 and 4 was performed on three compositions of GCase (Cerezyme®):
Protein denaturation was monitored using SYPRO Orange dye which fluoresces when bound to exposed hydrophobic amino acids.

GCase (Cerezyme®) [10] = target: T8, GCase (Cerezyme®); experiment: GCase activity in human plasma at 37° C. (4-MUG); assay type: in vitro ADME; settings: IFG 3 μM, 30 μM, 100 μM, over 4 hours
Description: FIG. 10 depicts the effects of IFG on recombinant human GCase (GCase; Cerezyme®, Genzyme Corp.) activity in human plasma at 37° C. GCase activity was evaluated to assess the ability of an ASSC to prolong the activity of GCase in human plasma over time. Cerezyme (0.5 μM) was incubated in human plasma with increasing concentrations of IFG (3 μM, 30 μM, or 100 μM) at 37° C. over 4 hours. Samples were assayed for GCase enzyme activity using 4-MU-β-glucose at 0.25, 0.5, 1, 2 and 4 hours and the residual GCase activity was expressed as % of initial activity.
The activity of GCase (0.5 μM; Cerazyme®) at 37° C. in human plasma was assessed for increasing concentrations of IFG (3 μM, 30 μM, and 100 μM) as a function time using the substrate 4-MUG.

O[C@H]1[C@H](O)CNC[C@@H]1C(F)F [AT3375] was tested, and the “GCase activity recovered from conditioned media” value (GCase) was “increased the activity” and the “α-Gal A activity from conditioned media” value (α-Gal A [1]) was “increased slightly”.
With OC[C@H]1NC[C@H](O)[C@@H](O)[C@H]1O [DGJ, 1-deoxygalactonorjirimycin] the “α-Gal A thermal stability (melting temperature)” value (α-Gal A (Fabrazyme®)) was “increases α-Gal A thermal stability in a dose-dependent manner”, the “Further denaturation of α-Gal A” value (α-Gal A [2]) was “prevented further denaturation” and the “α-Gal A activity from conditioned media” value (α-Gal A [3]) was “increased the activities”. The “α-Gal A activity from conditioned media” value (α-Gal A [1]) was “increased slightly”.
For OC[C@H]1NC[C@H](O)[C@@H](O)[C@@H]1O [DNJ, 1-deoxynorjirimycin], the “Further denaturation of GAA” value [4] was “prevented further denaturation”, the “GAA activity recovered from conditioned media” value (α-Glucosidase (GAA)) was “little effect” and the “Effect on loss of GAA enzyme activity” value [5] was “ameliorates the loss of GAA enzyme activity”. For the same compound, the “GAA thermal stability (heat required to denature)” value ([6]; 100 μM DNJ, pH 7.4, versus formulation without ASSC) was “required significantly more heat to denature” and the “GAA thermostability (melting temperature)” value ([6]; 1, 10, 100 μM 1-DNJ-HCl, pH 7.4, dose-dependent) was “increases GAA thermostability”.
With OC[C@H]1CNC[C@@H](O)[C@@H]1O [IFG, (3R,4R,5R)-5-(hydroxymethyl)-3,4-piperidinediol] the “Acid β-glucosidase activity from conditioned media” value (acid β-glucosidase) was “increased the activities”, the GCase unfolding ([7]; 10 μM IFG, pH 7.4, 37° C., over 24 hours (Example 5)) was “prevented GCase unfolding” and the “Stability of GCase (unfolding over time)” value ([7]; 10 μM and 100 μM IFG, neutral pH, 37° C. (Example 9)) was “significantly increases the stability”. For the same compound, the “Further denaturation of GCase” value ([7]; 50 μM IFG added at 3 or 6 hours, pH 7.4, 37° C.) was “prevented further denaturation”, the “Stability of GCase activity over time” value (GCase (Cerezyme®) [8]) was “significantly increases the stability” and the “GCase activity recovered from conditioned media” value (GCase) was “increased the activity”. The “Stability of recombinant human GCase upon thermal challenge” value ([9]; 10 μM IFG, pH 7.4 (Example 8)) was “significantly increases stability”, the “GCase thermal stability (melting temperature)” value ([9]; 10 and 100 μM IFG, pH 7.4) was “increases GCase thermal stability in a dose-dependent manner” and the “Stability of GCase activity in human plasma” value (GCase (Cerezyme®) [10]) was “significantly increases the stability of GCase and prevents enzyme inactivation”.
With “Myozyme: recombinant human GAA (Myozyme®, Genzyme Corp.)” the “Stability of Myozyme at lysosomal versus neutral pH (thermal stability assay)” value ([6]; pH 5.2 versus pH 7.4, no chaperone) was “much more stable at lysosomal pH (5.2) than at neutral pH (7.4)”.
